Measurements: publication PMC11939259, “Antiparasitic and Antifungal Activities of Cetyl-Maritima, a New N-Cetyl-Modified Maritima Derivative” (Antibiotics, 2025)
Several values for one entry are separate records, joined by “and”; a condition that tells them apart may be missing. Equal values may be shown once. Read-outs that look alike come from different tables or passages of the source.

Tests used:
[1] = tested on: M. mycetomatis fungal strain MM55; experiment: M. mycetomatis MM55 in vitro susceptibility, MTS metabolic activity; type: cell-based, Madurella mycetomatis; conditions: for Metabolic activity upon treatment at 25 μM / Metabolic activity upon treatment at 100 μM: ± SD
Experimental: The M. mycetomatis MM55 isolate obtained from a patient and identified and maintained in the Erasmus Medical Centre, Rotterdam, The Netherlands, was applied for the investigation of the in vitro susceptibility of the test compounds as reported previously [94]. In short, the fungal isolate was cultured on Sabouraud agar for 2 weeks at 37 °C, after which the mycelium was transferred in colorless RPMI 1640 medium supplemented with L-glutamine (0.3 g/L; Capricorn-Scientific, Ebsdorfergrund, Germany), morpholinepropanesulfonic acid (MOPS, 20 mM, Sigma, St. Louis, MO, USA), and chloramphenicol (100 mg/L, Oxoid, Basingstroke, UK). The mycelium was sonicated for 10 s at 10 μm with a probe sonicator (Soniprep, Beun de Ronde, Abcoude, The Netherlands) to obtain a hyphal suspension, after which the hyphal suspension was cultured for another week at 37 °C. The suspension was then collected by centrifugation (5 min, 3400 rpm) and washed with PBS followed by the addition of fresh RPMI 1640 medium, after which the mycelia was again sonicated for 10 s at 10 μm with a probe sonicator. The hyphal suspension was diluted to a transmission of 70% at 660 nm (Novaspec II; Pharmacia Biotech, Uppsala, Sweden). Then, 100 μL of the suspension was added to each well of a 96-wells plate (Costar 3799, Fisher Scientific, Breda, The Netherlands) that contained 1 μL of each compound sample. Compounds were initially evaluated at concentrations of 100 μM and 25 μM.
For the final metabolic activity evaluation, a viability dye named MTS, 3-(4,5-dimethylthiazol-2-yl)-5-(3-carboxymethoxyphenyl)-2-(4-sulfophenyl)-2H-tetrazolium salt, was applied as described in a previous study [64]. The following formula was used: Percentage metabolic activity=Absorbance test490nm−Absorbance NC490nm/Absorbance GC490nm−Absorbance NC490nm∗100
The growth control (GC) refers to the fungal isolate only and indicates 100% metabolic activity.

[2] = tested on: T. gondii RH strain tachyzoites; experiment: T. gondii growth inhibition in infected Vero cells (infection index); type: cell-based, Toxoplasma gondii
Description: Cells of the Vero cell line (ATCC® CCL81™, Manassas, VA, USA) were used to cultivate T. gondii RH strain tachyzoites. The effects of test compounds on T. gondii growth were investigated according to previously published methods. Vero cells were maintained in complete RPMI 1640 medium supplemented with 10% heat-inactivated FBS, under a humidified atmosphere containing 5% CO2 at 37 °C. The cells were seeded in 96-well plates at a density of 5 × 10^3 cells/well (see also Figure S7) in 200 μL of RPMI 1640 medium and incubated at 37 °C with 5% CO2 for 24 h. Following incubation, the medium was discarded, and cells were washed with PBS. Subsequently, RPMI 1640 medium containing 2% FBS and T. gondii tachyzoites was added at a ratio of 5 parasite cells to 1 Vero cell. After 5 h incubation at 37 °C and 5% CO2, cells were washed with PBS and processed as outlined below.
Control: RPMI 1640 medium with 0.8% DMSO.
Experimental: RPMI 1640 medium containing test compounds (dissolved in DMSO) at concentrations of 90, 30, 10, 3.3, 1.1, 0.37, and 0.12 μg/mL. Atovaquone (ATO) was used as positive control.
Cells were incubated at 37 °C and 5% CO2 for 72 h, washed with PBS, fixed in 10% formalin, and stained with 1% toluidine blue. The infection index, defined as the number of infected cells out of 200 examined cells, was determined using an inverted photomicroscope.
The percentage of inhibition was calculated using the following equation:Inhibition (%) = [(I Control − I Experimental)/I Control] × 100 where “I Control” is the infection index of untreated cells, and “I Experimental” is the infection index of cells treated with test compounds.

Vero monkey kidney cells = experiment: Vero cell cytotoxicity (MTT); type: cell-based; conditions: Primates, 72 h, ± S.D
Description: MTT assays were performed to assess the cytotoxicity of the test compounds. Vero cells and isolated macrophages were seeded in 96-well plates at a density of 5 × 10^3 cells per well in 200 μL of RPMI 1640 medium with 10% FBS and incubated at 37 °C with 5% CO2 for 24 h. After incubation, cells were washed with PBS and treated with test compounds at varying concentrations (90, 30, 10, 3.3, 1.1, 0.37, and 0.12 μg/mL) in 10% FBS medium for 72 h. Negative control wells contained cells treated with medium in 2% FBS without test compounds (see also raw data in Table S5). After treatment, the supernatant was removed, and 50 μL of RPMI 1640 medium containing 14 μL of MTT solution (5 mg/mL) was added. The cells were incubated for an additional 4 h. Following incubation, the supernatant was discarded, and 200 μL of DMSO was added to dissolve the formazan crystals. The absorbance was measured at 540 nm using a FLUOstar OPTIMA spectrophotometer (BMG LABTECH, Ortenberg, Germany). […] IC50 values were determined from three independent experiments.

peritoneal macrophages = experiment: Macrophage cytotoxicity (MTT); type: cell-based, BALB/c mice; conditions: Mus musculus, 72 h, read-out: IC50 Macrophages
Description: For amastigote activity assays, peritoneal macrophages were collected from BALB/c mice (7 weeks old) by aspiration. Cells (5 × 10^4 cells/well) were seeded into 96-well plates (see also Figure S7) with phenol red-free RPMI 1640 medium containing 10% FBS and incubated at 37 °C with 5% CO2 for 4 h to allow adhesion. After discarding the medium and washing with PBS, 200 μL of L. major promastigotes in RPMI 1640 medium (10 promastigotes per macrophage) were added. Plates were incubated at 37 °C with 5% CO2 for 24 h to promote macrophage infection and amastigote differentiation. Unattached promastigotes were removed by washing with PBS (three times), and fresh phenol red-free RPMI 1640 medium containing test compounds (90, 30, 10, 3.3, 1.1, 0.37, and 0.12 μg/mL) was added. Cultures were incubated at 37 °C in 5% CO2 for 72 h. […] After incubation, cells were fixed and Giemsa-stained, and the percentage of infected macrophages was determined microscopically. IC50 values were calculated from three independent experiments. […]
MTT assays were performed to assess the cytotoxicity of the test compounds. […] The absorbance was measured at 540 nm using a FLUOstar OPTIMA spectrophotometer (BMG LABTECH, Ortenberg, Germany). […] IC50 values were determined from three independent experiments.

[3] = tested on: L. major intramacrophageal amastigotes; experiment: L. major intramacrophageal amastigote assay (Giemsa, infected macrophages); type: cell-based, Leishmania major; conditions: for IC50: Leishmania major, Macrophage, 72 h, read-out: IC50 Amastigotes
Description: Promastigotes of L. major were isolated from a patient in February 2016 and cultured at 26 °C in Schneider’s Drosophila medium (Invitrogen, Carlsbad, CA, USA) supplemented with 10% heat-inactivated fetal bovine serum (FBS, Invitrogen, USA) and antibiotics. Cultures were maintained in tissue culture flasks with weekly transfers. The promastigotes were cryopreserved in liquid N2 at a concentration of 3 × 10^6 parasites/mL. Virulent L. major parasites were maintained by serial passage in BALB/c mice through hind footpad injections of 1 × 10^6 stationary-phase promastigotes, and amastigotes were isolated after 7 weeks. Isolated amastigotes were converted to promastigotes by culturing at 26 °C in Schneider’s medium with antibiotics and 10% FBS. Amastigote-derived promastigotes, with fewer than five in vitro passages, were used for infection experiments.
For amastigote activity assays, peritoneal macrophages were collected from BALB/c mice (7 weeks old) by aspiration. Cells (5 × 10^4 cells/well) were seeded into 96-well plates (see also Figure S7) with phenol red-free RPMI 1640 medium containing 10% FBS and incubated at 37 °C with 5% CO2 for 4 h to allow adhesion. After discarding the medium and washing with PBS, 200 μL of L. major promastigotes in RPMI 1640 medium (10 promastigotes per macrophage) were added. Plates were incubated at 37 °C with 5% CO2 for 24 h to promote macrophage infection and amastigote differentiation. Unattached promastigotes were removed by washing with PBS (three times), and fresh phenol red-free RPMI 1640 medium containing test compounds (90, 30, 10, 3.3, 1.1, 0.37, and 0.12 μg/mL) was added. Cultures were incubated at 37 °C in 5% CO2 for 72 h. […] After incubation, cells were fixed and Giemsa-stained, and the percentage of infected macrophages was determined microscopically. IC50 values were calculated from three independent experiments. The isolation of parasites and macrophages was performed strictly following the rules and guidelines of the responsible committee of research ethics, Deanship of Scientific Research, Qassim University, Kingdom of Saudi Arabia (permission number 20-03-20).

L. major promastigotes = experiment: L. major promastigote viability (MTT); type: cell-based; conditions: Leishmania major, 72 h, read-out: IC50 Promastigotes
[4] = tested on: M. mycetomatis fungal strain MM55; design: method as in PMID 37067830; conditions: positive control, cited from earlier work
eumycetoma = tested on: eumycetoma; design: method as in PMID 38690871, PMID 38935904, PMID 39098321; conditions: eumycetoma patients, conditions of a clinical trial, combined with surgery; cited from earlier work
[5] = Madurella mycetomatis, read-out: IC50

With `CCCCCCCCCCCCCCCC[n+]1ccccc1C` [C2PicBr] the “Metabolic activity upon treatment at 25 μM” value [1] was 8.7 ± 0.8%, the “Metabolic activity upon treatment at 100 μM” value [1] was 4.5 ± 0.8% and the IC50 [1, 5] was 16.1 µM.
For `CCCCCCCCCCCCCCCC[n+]1ccc(C)cc1` [C4PicBr], the “Metabolic activity upon treatment at 25 μM” value [1] was 18.4 ± 17.7%, the “Metabolic activity upon treatment at 100 μM” value [1] was 5.0 ± 0.8% and the IC50 [1, 5] was 16.1 µM.
With `CCCCCCCCCCCCCCCC[n+]1ccc(CCC=C(C)CCC=C(C)C)cc1.[Br-]` [Cetyl-Maritima, 1-Hexadecyl-4-(4,8-dimethyl-3,7-nonadienyl)-pyridinium Bromide] the “SI selectivity index (Vero/T. gondii)” value [2] was 1.3, the IC50 ([2]; 72 h; ± S.D) was 8.6 ± 1.2 µM and the IC50 ([2]; Toxoplasma gondii, Vero, 72 h; ± S.D) was ~8 µM. For the same compound, the IC50 (Vero monkey kidney cells) was 11.4 ± 1.3 µM, the IC50 (peritoneal macrophages) was 4.3 ± 0.5 µM and the IC50 [1] was 8.2 µM. The “Metabolic activity upon treatment at 25 μM” value [1] was 12.2 ± 6.9%, the “Metabolic activity upon treatment at 100 μM” value [1] was 13.1 ± 2.0% and the IC50 ([1]; Madurella mycetomatis) was ~8 µM. For the same compound, the “SI selectivity index (macrophages/L. major amastigotes)” value [3] was 7.2, the “SI selectivity index, Vero kidney cells vs L. major amastigotes” value [3] was 19 and the IC50 [3] was 0.6 ± 0.2 µM. It also gave an IC50 (L. major promastigotes) of 1.5 ± 0.2 µM.
In the case of `CCCCCCCCCCCCCCCC[n+]1ccc(/C=C/c2ccc(N(C)C)cc2)cc1` [DAMS-16], the “Metabolic activity upon treatment at 25 μM” value [1] is reported as 56.9 ± 69.3%, the “Metabolic activity upon treatment at 100 μM” value [1] is reported as 25.4 ± 4.3% and the IC50 [1, 5] is reported as 16 µM.
For `CCC(C)n1ncn(-c2ccc(N3CCN(c4ccc(OCC5COC(Cn6cncn6)(c6ccc(Cl)cc6Cl)O5)cc4)CC3)cc2)c1=O` (stereo not drawn) [Itraconazole, itraconazole], the “Metabolic activity upon treatment at 25 μM” value ([4]; 25 μM, ± SD) is given as −1.04 ± 2.37%, the “Metabolic activity upon treatment at 100 μM” value ([4]; 100 μM, ± SD) is given as 2.34 ± 4.49% and the IC50 [4] is given as 0.09 µM. The cure rate (eumycetoma) was > 70%.
For `CC(C)=CCCC(C)=CCCc1ccncc1` [Maritima, 4-(4,8-dimethyl-3,7-nonadienyl)-pyridine], the IC50 ([2]; Toxoplasma gondii, Vero; 72 h; ± S.D) was > 314 µM, the IC50 (Vero monkey kidney cells) was > 314 µM and the IC50 (peritoneal macrophages; ± S.D) was > 314 µM. For the same compound, the “Metabolic activity upon treatment at 25 μM” value [1] was 54% and 54.3 ± 7.5%, the “Metabolic activity upon treatment at 100 μM” value [1] was 13.8 ± 33.8% and the IC50 ([3]; intramacrophageal, ± S.D) was > 314 µM. The IC50 (L. major promastigotes; ± S.D) was > 314 µM.
With `CCCCCCCCCCCCCCCC[n+]1ccc(/C=C/c2cc(OC)c(OC)c(OC)c2)cc1` [TMP-16] the “Metabolic activity upon treatment at 25 μM” value [1] was 13.3 ± 1.5%, the “Metabolic activity upon treatment at 100 μM” value [1] was 19.1 ± 1.1% and the IC50 [1, 5] was 18.2 µM.
In the case of `C[C@@H](c1nc(-c2ccc(C#N)cc2)cs1)[C@@](Cn1cncn1)(OCOP(=O)(O)O)c1ccc(F)cc1F` [fosravuconazole], the cure rate (eumycetoma) is listed as > 70%.
In the case of “Dichlorido(η^6-p-cymene)[4-(4,8-dimethyl-3,7-nonadienyl)-pyridine]ruthenium(II) [Ru-Maritima]”, the “Metabolic activity upon treatment at 25 μM” value [1] is reported as 155% and 155.7 ± 22.2% and the “Metabolic activity upon treatment at 100 μM” value [1] is reported as −6.6 ± 12.2%.
